Measurements from patent US11976057B2, “MrgX2 antagonists” (GlaxoSmithKline Intellectual Property Development Limited, priority 2020, dated 2024).

Biological target: T1, human MRGPRX2 (Homo sapiens, UniProt Q96LB1)
T1 sequence (Q96LB1 1-330): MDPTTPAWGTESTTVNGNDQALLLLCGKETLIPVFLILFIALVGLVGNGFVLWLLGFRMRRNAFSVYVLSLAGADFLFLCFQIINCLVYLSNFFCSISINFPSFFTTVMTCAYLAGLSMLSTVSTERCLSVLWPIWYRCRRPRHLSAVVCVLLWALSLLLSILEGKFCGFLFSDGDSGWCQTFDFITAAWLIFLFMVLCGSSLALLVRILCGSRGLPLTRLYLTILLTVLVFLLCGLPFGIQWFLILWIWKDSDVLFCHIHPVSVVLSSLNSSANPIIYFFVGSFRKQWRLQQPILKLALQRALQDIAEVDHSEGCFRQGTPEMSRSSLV
Test: Ca2+ mobilization assay (FLIPR TETRA): inhibition of Cortistatin-14 mediated MRGPRX2 activation

SMILES	IC50 [nM]
C[C@@H](C(=O)Nc1ccc(Oc2cccnc2)cn1)N1CCC(F)(F)[C@@H](c2ccc(=O)[nH]c2)C1 [Example 59, (S)-2-((S)-4,4-difluoro-3-(6-oxo-1,6-dihydropyridin-3-yl)piperidin-1-yl)-N-(5-(pyridin-3-yloxy)pyridin-2-yl)propanamide]	100 to 3160
CC(C)n1cc(C2CN([C@@H](C)C(=O)Nc3ccc(F)cn3)CCC2(F)F)ccc1=O (stereo partly drawn) [Example 194, (2S)-2-(4,4-difluoro-3-(1-isopropyl-6-oxo-1,6-dihydropyridin-3-yl)piperidin-1-yl)-N-(5-fluoropyridin-2-yl)propanamide]	100 to 3160
C[C@@H](C(=O)Nc1ccc(OCC2CC2)nn1)N1CCC(F)(F)[C@@H](c2c[nH]c(=O)c(CN3CCOCC3)c2)C1 (single isomer, unassigned) [Example 225]	100 to 3160
CC(C(=O)Nc1cnc(Oc2ccc(F)cc2)cn1)N1CCC(F)(F)C(c2c[nH]c(=O)c(C#N)c2)C1 (stereo not shown) [Example 250, 2-(3-(5-cyano-6-oxo-1,6-dihydropyridin-3-yl)-4,4-difluoropiperidin-1-yl)-N-(5-(4-fluorophenoxy)pyrazin-2-yl)propanamide]	100 to 3160
CC(C(=O)Nc1ccc(C(=O)OC2CC2)cn1)N1CCC(F)(F)[C@@H](c2ccc(=O)[nH]c2)C1 (stereo partly drawn) [Example 83, cyclopropyl 6-(2-((S)-4,4-difluoro-3-(6-oxo-1,6-dihydropyridin-3-yl)piperidin-1-yl)propanamido) nicotinate]	100 to 3160
C[C@@H](C(=O)Nc1ccc(Cl)cn1)N1CCC(F)(F)[C@@H](c2c[nH]c(=O)c(N)c2)C1 [Example 141, (S)-2-((S)-3-(5-amino-6-oxo-1,6-dihydropyridin-3-yl)-4,4-difluoropiperidin-1-yl)-N-(5-chloropyridin-2-yl)propanamide]	100 to 3160
CC(C(=O)Nc1ccc(F)cn1)N1CCC(F)(F)C(c2c[nH]c(=O)c(C(N)=O)c2)C1 (stereo not shown) [Example 253]	100 to 3160
CC(C(=O)Nc1ccc(OCC(F)F)cn1)N1CCC(F)(F)[C@@H](c2ccc(=O)[nH]c2)C1 (stereo partly drawn) [Example 49, 2-((S)-4,4-difluoro-3-(6-oxo-1,6-dihydropyridin-3-yl)piperidin-1-yl)-N-(5-(2,2-difluoroethoxy)pyridin-2-yl)propanamide]	100 to 3160
C[C@@H](C(=O)Nc1ccc(Cl)cn1)N1CCC[C@@H](c2ccc(=O)n(CC(F)(F)F)c2)C1 (single isomer, unassigned) [Example 167]	100 to 3160
COc1ccc(NC(=O)C(C)N2CCC(F)(F)[C@@H](c3ccc(=O)[nH]c3)C2)nc1 (stereo partly drawn) [Example 44, 2-((S)-4,4-difluoro-3-(6-oxo-1,6-dihydropyridin-3-yl)piperidin-1-yl)-N-(5-methoxypyridin-2-yl)propanamide]	3160 to 31600
C[C@@H](C(=O)Nc1ccc(OCC2CC2)cn1)N1CCC(F)(F)[C@@](C)(c2ccc(=O)[nH]c2)C1 [Example 163, (S)—N-(5-(cyclopropylmethoxy)pyridin-2-yl)-2-((S)-4,4-difluoro-3-methyl-3-(6-oxo-1,6-dihydropyridin-3-yl)piperidin-1-yl)propanamide]	100 to 3160
C[C@@H](C(=O)Nc1ccc(OCC2CC2)cn1)N1CCC[C@@H](c2c[nH]c(=O)cc2C(F)(F)F)C1 (single isomer, unassigned) [Example 169]	100 to 3160
CC(C(=O)Nc1ccc(Cc2ncco2)cn1)N1CCC(F)(F)[C@@H](c2ccc(=O)[nH]c2)C1 (stereo partly drawn) [Example 53, 2-((S)-4,4-difluoro-3-(6-oxo-1,6-dihydropyridin-3-yl)piperidin-1-yl)-N-(5-(oxazol-2-ylmethy)pyridin-2-yl)propanamide]	3160 to 31600
C[C@@H](C(=O)Nc1ccc(OCC2CC2)nn1)N1CCC(F)(F)[C@@H](c2ccc(=O)[nH]n2)C1 [Example 146, (S)-N-(6-(cyclopropylmethoxy)pyridazin-3-yl)-2-((R)-4,4-difluoro-3-(6-oxo-1,6-dihydropyridazin-3-yl)piperidin-1-yl)propanamide]	10 to 100
C[C@@H](C(=O)Nc1ccc(C(=O)c2ccc(F)cc2)cn1)N1CCC(F)(F)[C@@H](c2cc[n+]([O-])cc2)C1 [Example 128, 4-((S)-4,4-difluoro-1-((S)-1-((5-(4-fluorobenzoyl)pyridin-2-yl)amino)-1-oxopropan-2-yl)piperidin-3-yl)pyridine 1-oxide]	100 to 3160
CC(C(=O)Nc1cc(F)c(F)cn1)N1CCC(F)(F)[C@@H](c2ccc(=O)[nH]c2)C1 (stereo partly drawn) [Example 39, 2-((S)-4,4-difluoro-3-(6-oxo-1,6-dihydropyridin-3-yl)piperidin-1-yl)-N-(4,5-difluoropyridin-2-yl)propanamide]	100 to 3160

The next lines start with the values.

IC50 [nM]	SMILES
10 to 100	CC(C(=O)Nc1cnc(Oc2ccc(F)cc2)cn1)C1CCC[C@@H](c2ccc(=O)[nH]c2)C1 (stereo partly drawn) [Example 284, N-(5-(4-fluorophenoxy)pyrazin-2-yl)-2-((3R)-3-(6-oxo-1,6-dihydropyridin-3-yl)cyclohexyl)propanamide]
≤ 10	C[C@@H](C(=O)Nc1ccc(OCC2CC2)cn1)N1CCC(F)(F)[C@@H](c2c[nH]c(=O)cn2)C1 [Example 133, (S)—N-(5-(cyclopropylmethoxy)pyridin-2-yl)-2-((R)-4,4-difluoro-3-(5-oxo-4,5-dihydropyrazin-2-yl)piperidin-1-yl)propanamide]
10 to 100	CC(C(=O)Nc1ccc(Oc2ccc(F)cc2)cn1)N1CCC(F)(F)C(c2cc[n+]([O-])c(C(O)C(F)(F)F)c2)C1 (stereo not shown) [Example 257]
≤ 10	C[C@@H](C(=O)Nc1ccc(Oc2ccc(F)cc2F)cn1)N1CCC(F)(F)[C@@H](c2c[nH]c(=O)c(CNCC(F)(F)F)c2)C1 [Example 242, (S)-2-((S)-4,4-difluoro-3-(6-oxo-5-(((2,2,2-trifluoroethyl)amino)methyl)-1,6-dihydropyridin-3-yl)piperidin-1-yl)-N-(5-(2,4-difluorophenoxy)pyridin-2-yl)propanamide]
10 to 100	CC(C(=O)Nc1ccc(Oc2cncc(F)c2)cn1)N1CCC(F)(F)[C@@H](c2ccc(=O)[nH]c2)C1 (stereo partly drawn) [Example 67, 2-((S)-4,4-difluoro-3-(6-oxo-1,6-dihydropyridin-3-yl)piperidin-1-yl)-N-(5-((5-fluoropyridin-3-yl)oxy)pyridin-2-yl)propanamide]
≤ 10	C[C@@H](C(=O)Nc1ccc(Oc2ccc(F)cc2F)cn1)N1CCC[C@@H](c2cc[n+]([O-])cc2)C1 [Example 182, 4-((S)-1-((S)-1-((5-(2,4-difluorophenoxy)pyridin-2-yl)amino)-1-oxopropan-2-yl)piperidin-3-yl)pyridine 1-oxide]
≤ 10	C[C@@H](C(=O)Nc1ccc(Oc2ccc(F)cc2)cn1)N1CCC(F)(F)[C@@H](c2cc[n+]([O-])c(CO)c2)C1 [Example 254, 4-((S)-4,4-difluoro-1-((S)-1-((5-(4-fluorophenoxy)pyridin-2-yl)amino)-1-oxopropan-2-yl)piperidin-3-yl)-2-(hydroxymethyl)pyridine 1-oxide]
≤ 10	C[C@@H](C(=O)Nc1ccc(F)cn1)N1CCC(F)(F)[C@@H](c2ccc(=O)n(CC(F)(F)F)c2)C1 [Example 3, (S)-2-((S)-4,4-difluoro-3-(6-oxo-1-(2,2,2-trifluoroethyl)-1,6-dihydropyridin-3-yl)piperidin-1-yl)-N-(5-fluoropyridin-2-yl)propanamide]
≤ 10	C[C@@H](C(=O)Nc1cnc(Oc2ccc(F)cc2F)cn1)N1CCC(F)(F)[C@@H](c2c[nH]c(=O)c(CN3CCOCC3)c2)C1 [Example 229, (S)-2-((S)-4,4-difluoro-3-(5-(morpholinomethyl)-6-oxo-1,6-dihydropyridin-3-yl)piperidin-1-yl)-N-(5-(2,4-difluorophenoxy)pyrazin-2-yl)propanamide]
≤ 10	CC(C(=O)Nc1ccc(Oc2ccc(F)cc2)cn1)C1CCC(F)(F)C(c2ccc(=O)[nH]c2)C1 (stereo not shown) [Example 278, 2-(4,4-difluoro-3-(6-oxo-1,6-dihydropyridin-3-yl)cyclohexyl)-N-(5-(4-fluorophenoxy)pyridin-2-yl)propanamide]
10 to 100	CC(C(=O)Nc1ccc(Oc2ccc[nH]c2=O)cn1)N1CCC(F)(F)[C@@H](c2ccc(=O)[nH]c2)C1 (stereo partly drawn) [Example 72, 2-((S)-4,4-difluoro-3-(6-oxo-1,6-dihydropyridin-3-yl)piperidin-1-yl)-N-(5-((2-oxo-1,2-dihydropyridin-3-yl)oxy)pyridin-2-yl)propanamide]
≤ 10	C[C@@H](C(=O)Nc1ccc(Oc2ccc(F)cc2F)cn1)N1CCC(F)(F)[C@@H](c2ccc(=O)[nH]c2)C1 [Example 4, (S)-2-((S)-4,4-difluoro-3-(6-oxo-1,6-dihydropyridin-3-yl)piperidin-1-yl)-N-(5-(2,4-difluorophenoxy)pyridin-2-yl)propanamide]
10 to 100	COc1cccc(Oc2ccc(NC(=O)C(C)N3CCC(F)(F)[C@@H](c4ccc(=O)[nH]c4)C3)nc2)n1 (stereo partly drawn) [Example 95, 2-((S)-4,4-difluoro-3-(6-oxo-1,6-dihydropyridin-3-yl)piperidin-1-yl)-N-(5-((6-methoxypyridin-2-yl)oxy)pyridin-2-yl)propanamide]
≤ 10	C[C@@H](C(=O)Nc1ccc(Oc2ccc(F)cc2F)cn1)[C@H]1CCC(F)(F)[C@@H](c2ccc(=O)[nH]c2)C1 [Example 280, (R)-2-((1S,3R)-4,4-difluoro-3-(6-oxo-1,6-dihydropyridin-3-yl)cyclohexyl)-N-(5-(2,4-difluorophenoxy)pyridin-2-yl)propanamide]
≤ 10	C[C@@H](C(=O)Nc1ccc(Oc2ncc(F)cc2F)cn1)N1CCC(F)(F)[C@@H](c2ccc(=O)[nH]c2)C1 [Example 66, (S)-2-((S)-4,4-difluoro-3-(6-oxo-1,6-dihydropyridin-3-yl)piperidin-1-yl)-N-(5-((3,5-difluoropyridin-2-yl)oxy)pyridin-2-yl)propanamide]
